From patent publication US11730819B2, “Peptide derivatives having novel linkage structures” (priority 2016, dated 2023)
“And” between values parts separate entries of the source, which are not always exact repeats. Equal values may be shown once. Read-outs that look alike come from different tables or passages of the source.

Experiments:
MT1-MMP hemopexin domain = molecular target: T1, MT1-MMP hemopexin domain (Homo sapiens, UniProt P50281); experiment: Fluorescence polarisation competition binding assay
T1 construct: residues Cys319-Gly511 from the human gene; His6 (N); made in house; host or cells: HEK293 cells (transient, pEXPR-IBA42 vector)
From the text: The MT1-MMP hemopexin-like repeats (also known as the MT1-MMP hemopexin domain), residues Cys319-Gly511 from the human gene, were transiently expressed in HEK293 cells as secreted N-terminally His6-tagged soluble protein, using the pEXPR-IBA42 (IBA) expression vector. Following expression, the protein was purified by Nickel-NTA affinity chromatography followed by gel filtration, and purity was checked by SDS-PAGE. Batch to batch variability was also monitored by fluorescence thermal shift experiments in the presence/absence of a hemopexin domain binding bicycle.
(§1) Binding affinity was measured using competition assays using Fluorescence Polarisation (anisotropy).
Fluoresceination may be performed on the N-terminal amino group of the peptide, which is separated from the bicycle core sequence by a sarcosine spacer (usually Sar5). This can be done during Fmoc solid phase synthesis or post-synthetically (after cyclisation with TBMB and purification) if the N-terminal amino group is unique to the peptide. Fluoresceination can also be performed on the C-terminus, usually on a Lysine introduced as the first C-terminal residue, which is then separated from the bicycle core sequence by a sarcosine spacer (usually Sar6). Thus, N-terminal tracers can have a molecular format described as Fluo-Gly-Sar5-A(BicycleCoreSequence), and (BicycleCoreSequence)-A-Sar6-K(Fluo) for a C-terminally fluoresceinated construct. Fluorescent tracers used in the Examples are A-(17-69)-A-Sar6-K(Fluo), A-(17-69-07)-A-Sar6-K(Fluo), and A-(17-69-12)-A-Sar6-K(Fluo).
(§2) Here, a pre-formed complex of PEX with the fluorescent PEX-binding tracer is titrated with free, non-fluoresceinated bicyclic peptide. Since all 17-69-based peptides are expected to bind at the same site, the titrant will displace the fluorescent tracer from PEX. Dissociation of the complex can be measured quantitatively, and the Kd of the competitor (titrant) to the target protein determined. The advantage of the competition method is that the affinities of non-fluoresceinated bicyclic peptides can be determined accurately and rapidly.
(§3) Subsequently, the non-fluorescent competitor bicyclic peptide (usually just the bicycle core sequence) is titrated, such that it displaces the fluorescent tracer from the target protein. The displacement of the tracer is measured and associated with a drop in fluorescence polarisation. The drop in fluorescence polarisation is proportional to the fraction of target protein bound with the non-fluorescent titrant, and thus is a measure of the affinity of titrant to target protein.
(§4) The raw data is fit to the analytical solution of the cubic equation that describes the equilibria between fluorescent tracer, titrant, and binding protein. The fit requires the value of the affinity of fluorescent tracer to the target protein, which can be determined separately by direct binding FP experiments (see previous section).

[1] = Plasma stability in mouse serum; type: in vitro ADME; conditions: 4 μm concentration, read-out: T1/2 in mouse serum
From the text: (§5) The stability appears to be slightly greater than that of the corresponding conjugates in which the peptide is linked to the scaffold by three thioether linkages.

rat/mouse MT1-MMP = rat/mouse MT1-MMP (Mus musculus, UniProt P53690); experiment: Binding affinity to rat/mouse MT1-MMP, measured as previously described; conditions: Binding Affinity (Ki in nM) rat/mouse ki, bicycle peptide-drug conjugates, two values given
Description: as §1, §2, §3
as §4, with “section). The curve fitting was performed using Sigmaplot 12.0 and used an adapted version of the equation described by Zhi-Xin Wang (FEBS Letters 360 (1995) 111-114).” for “section).”
The in vitro binding affinities of the bicycle peptide-drug conjugates prepared above were measured for MT1-MMP as previously described herein.

[2] = Plasma stability in human serum; type: in vitro ADME; conditions: 4 μm concentration, read-out: T1/2 in human serum
From the text: as §5

[3] = human MT1-MMP, bicycle peptides, read-out: Binding Affinity Ki (h)
[4] = Binding Affinity (Ki in nM) Human ki, bicycle peptide-drug conjugates, human MT1-MMP, two values given

Structure (SMILES) | Ki (MT1-MMP hemopexin domain; [3]) | Ki (MT1-MMP hemopexin domain) | Ki (MT1-MMP hemopexin domain; [4]) | Ki (rat/mouse MT1-MMP) | also measured
CC(=O)N[C@H]1CN(C)Cc2cc3cc(c2)CN(C)C[C@@H](C(N)=O)NC(=O)[C@H](C(C)(C)C)NC(=O)[C@H](CC(=O)O)NC(=O)[C@H](Cc2ccc(O)cc2)NC(=O)[C@H](Cc2ccccc2)NC(=O)[C@H](CC(=O)O)NC(=O)[C@H](CCC(=O)O)NC(=O)[C@H](CSC3)NC(=O)[C@@H](C)NC(=O)[C@H](Cc2cccc3ccccc23)NC(=O)[C@H](CCC(=O)O)NC(=O)[C@H](CC(N)=O)NC(=O)[C@@H](C)NC1=O [17-69-07-N461, Ac(Dap(Me))(D-Ala)NE(1Nal)(D-Ala)CEDFYD(tBuGly)(Dap(Me))] | 6 nM | – | – | – | –
CC(=O)N[C@@H](C)C(=O)N[C@H]1CN(C)Cc2cc3cc(c2)CN(C)C[C@H](NC(=O)[C@@H](C)NC(=O)[C@H](Cc2cccc4ccccc24)NC(=O)[C@H](CCC(=O)O)NC(=O)[C@H](CC(N)=O)NC(=O)[C@@H](C)NC1=O)C(=O)N[C@@H](CCC(=O)O)C(=O)N[C@@H](CC(=O)O)C(=O)N[C@@H](Cc1ccccc1)C(=O)N[C@@H](Cc1ccc(O)cc1)C(=O)N[C@@H](CC(=O)O)C(=O)N[C@@H](C(C)(C)C)C(=O)N[C@H](C(N)=O)CSC3 [17-69-07-N470, Ac-A(Dap(Me))(D-Ala)NE(1Nal)(D-Ala)(Dap(Me))EDFYD(tBuGly)C] | – | 8.3 nM | – | – | –
C#CCCC(=O)N[C@H](CC(=O)O)C(=O)N[C@H](CC(=O)O)C(=O)N[C@H](CC(=O)O)C(=O)N(C)CC(=O)N(C)CC(=O)N[C@@H](C)C(=O)N[C@H]1CN(C)Cc2cc3cc(c2)CN(C)C[C@@H](C(N)=O)NC(=O)[C@H](C(C)(C)C)NC(=O)[C@H](CC(=O)O)NC(=O)[C@H](Cc2ccc(O)cc2)NC(=O)[C@H](Cc2ccccc2)NC(=O)[C@H](CC(=O)O)NC(=O)[C@H](CCC(=O)O)NC(=O)[C@H](CSC3)NC(=O)[C@@H](C)NC(=O)[C@H](Cc2cccc3ccccc23)NC(=O)[C@H](CCC(=O)O)NC(=O)[C@H](CC(N)=O)NC(=O)[C@@H](C)NC1=O [17-69-07-N471, (PYA)-(D-Asp)3-Sar2-A(Dap(Me))(D-Ala)NE(1Nal)(D-Ala)CEDFYD(tBuGly)(Dap(Me))] | 4.6 nM | – | – | – | –
C#CCCC(=O)NCCC(=O)N(C)CC(=O)N(C)CC(=O)N(C)CC(=O)N(C)CC(=O)N(C)CC(=O)N[C@@H](C)C(=O)N[C@H]1CN(C)Cc2cc3cc(c2)CN(C)C[C@@H](C(N)=O)NC(=O)[C@H](C(C)(C)C)NC(=O)[C@H](CC(=O)O)NC(=O)[C@H](Cc2ccc(O)cc2)NC(=O)[C@H](Cc2ccccc2)NC(=O)[C@H](CC(=O)O)NC(=O)[C@H](CCC(=O)O)NC(=O)[C@H](CSC3)NC(=O)[C@@H](C)NC(=O)[C@H](Cc2cccc3ccccc23)NC(=O)[C@H](CCC(=O)O)NC(=O)[C@H](CC(N)=O)NC(=O)[C@@H](C)NC1=O [17-69-07-N472, (PYA)-(B-Ala)-Sar5-A(Dap(Me))(D-Ala)NE(1Nal)(D-Ala)CEDFYD(tBuGly)(Dap(Me))] | 3.4 nM | – | – | – | –
C#CCCC(=O)N[C@H](CC(=O)O)C(=O)N[C@H](CC(=O)O)C(=O)N[C@H](CC(=O)O)C(=O)N(C)CC(=O)N(C)CC(=O)N[C@@H](C)C(=O)N[C@H]1CN(C)Cc2cc3cc(c2)CN(C)C[C@H](NC(=O)[C@@H](C)NC(=O)[C@H](Cc2cccc4ccccc24)NC(=O)[C@H](CCC(=O)O)NC(=O)[C@H](CC(N)=O)NC(=O)[C@@H](C)NC1=O)C(=O)N[C@@H](CCC(=O)O)C(=O)N[C@@H](CC(=O)O)C(=O)N[C@@H](Cc1ccccc1)C(=O)N[C@@H](Cc1ccc(O)cc1)C(=O)N[C@@H](CC(=O)O)C(=O)N[C@@H](C(C)(C)C)C(=O)N[C@H](C(N)=O)CSC3 [17-69-07-N473, (PYA)-(D-Asp)3-Sar2-A(Dap(Me))(D-Ala)NE(1Nal)(D-Ala)(Dap(Me))EDFYD(tBuGly)C] | – | 7.3 nM | – | – | –
CC(=O)N[C@@H](C)C(=O)N[C@H]1CN(C)Cc2cc3cc(c2)CN(C)C[C@H](NC(=O)[C@@H](C)NC(=O)[C@H](Cc2cccc4ccccc24)NC(=O)[C@H](CCC(=O)O)NC(=O)[C@H](CC(N)=O)NC(=O)[C@@H](C)NC1=O)C(=O)N[C@@H](CCC(=O)O)C(=O)N[C@@H](CC(=O)O)C(=O)N[C@@H](Cc1ccccc1)C(=O)N[C@@H](Cc1ccc(O)cc1)C(=O)N[C@@H](CC(=O)O)C(=O)N[C@@H](C(C)(C)C)C(=O)N[C@H](C(N)=O)CN(C)C3 [17-69-07-N474, Ac-A(Dap(Me))(D-Ala)NE(1NaI)(D-Ala)(Dap(Me))EDFYD(tBuGly)(Dap(Me))] | – | 7.5 nM | – | – | Kd (MT1-MMP hemopexin domain): 8 nM
CC[C@H](C)[C@@H]([C@@H](CC(=O)N1CCC[C@H]1[C@H](OC)[C@@H](C)C(=O)N[C@H](C)[C@@H](O)c1ccccc1)OC)N(C)C(=O)[C@@H](NC(=O)[C@H](C(C)C)N(C)C(=O)OCc1ccc(NC(=O)[C@H](CCCNC(N)=O)NC(=O)[C@@H](NC(=O)Cn2cc(CCC(=O)NCCC(=O)N(C)CC(=O)N(C)CC(=O)N(C)CC(=O)N(C)CC(=O)N(C)CC(=O)N(C)CC(=O)N(C)CC(=O)N(C)CC(=O)N(C)CC(=O)N(C)CC(=O)N[C@@H](C)C(=O)N[C@H]3CNCc4cc5cc(c4)CSC[C@H](NC(=O)[C@@H](C)NC(=O)[C@H](Cc4cccc6ccccc46)NC(=O)[C@H](CCC(=O)O)NC(=O)[C@H](CC(N)=O)NC(=O)[C@@H](C)NC3=O)C(=O)N[C@@H](CCC(=O)O)C(=O)N[C@@H](CC(=O)O)C(=O)N[C@@H](Cc3ccccc3)C(=O)N[C@@H](Cc3ccc(O)cc3)C(=O)N[C@@H](CC(=O)O)C(=O)N[C@@H](C(C)(C)C)C(=O)N[C@H](C(N)=O)CNC5)nn2)C(C)C)cc1)C(C)C [BT17BDC-53] | – | – | 3.6 nM and 2.5 nM | 1.8 nM and 1.6 nM | half-life at 4 μm [1]: > 50 h; half-life at 4 μm [2]: > 50 h
CC[C@H](C)[C@@H]([C@@H](CC(=O)N1CCC[C@H]1[C@H](OC)[C@@H](C)C(=O)N[C@H](C)[C@@H](O)c1ccccc1)OC)N(C)C(=O)[C@@H](NC(=O)[C@H](C(C)C)N(C)C(=O)OCc1ccc(NC(=O)[C@H](CCCNC(N)=O)NC(=O)[C@@H](NC(=O)Cn2cc(CCC(=O)N[C@@H](C)C(=O)N[C@H]3CN(C)Cc4cc5cc(c4)CN(C)C[C@@H](C(N)=O)NC(=O)[C@H](C(C)(C)C)NC(=O)[C@H](CC(=O)O)NC(=O)[C@H](Cc4ccc(O)cc4)NC(=O)[C@H](Cc4ccccc4)NC(=O)[C@H](CC(=O)O)NC(=O)[C@H](CCC(=O)O)NC(=O)[C@H](CSC5)NC(=O)[C@@H](C)NC(=O)[C@H](Cc4cccc5ccccc45)NC(=O)[C@H](CCC(=O)O)NC(=O)[C@H](CC(N)=O)NC(=O)[C@@H](C)NC3=O)nn2)C(C)C)cc1)C(C)C [BT17BDC-62] | – | – | 3.9 nM and 3.3 nM | 2.1 nM and 1.9 nM | –
CC[C@H](C)[C@@H]([C@@H](CC(=O)N1CCC[C@H]1[C@H](OC)[C@@H](C)C(=O)N[C@H](C)[C@@H](O)c1ccccc1)OC)N(C)C(=O)[C@@H](NC(=O)[C@H](C(C)C)N(C)C(=O)OCc1ccc(NC(=O)[C@H](CCCNC(N)=O)NC(=O)[C@@H](NC(=O)CCCC(=O)NCCC(=O)N(C)CC(=O)N(C)CC(=O)N(C)CC(=O)N(C)CC(=O)N(C)CC(=O)N(C)CC(=O)N(C)CC(=O)N(C)CC(=O)N(C)CC(=O)N(C)CC(=O)N[C@@H](C)C(=O)N[C@H]2CN(C)Cc3cc4cc(c3)CN(C)C[C@@H](C(N)=O)NC(=O)[C@H](C(C)(C)C)NC(=O)[C@H](CC(=O)O)NC(=O)[C@H](Cc3ccc(O)cc3)NC(=O)[C@H](Cc3ccccc3)NC(=O)[C@H](CC(=O)O)NC(=O)[C@H](CCC(=O)O)NC(=O)[C@H](CSC4)NC(=O)[C@@H](C)NC(=O)[C@H](Cc3cccc4ccccc34)NC(=O)[C@H](CCC(=O)O)NC(=O)[C@H](CC(N)=O)NC(=O)[C@@H](C)NC2=O)C(C)C)cc1)C(C)C [BT17BDC-68] | – | – | 2.9 nM and 3.3 nM | 1.8 nM and 1.6 nM | –
